# Molecular target: Human PPAR-gamma (Homo sapiens (Human), UniProt P37231)
# Assay: Human PPAR-gamma (h) (agonist radioligand) binding assay
# Conditions: inhibition of radioligand specific binding; class ranges defined in μM
# Method: The compounds of the present invention were assayed for binding to the Human PPAR-gamma (h) (agonist radioligand) Assay and were tested at several concentrations for IC50 determination.
# Compound binding was calculated as a % inhibition of the binding of a radioactively labelled ligand specific for each target, as described in (FERRY, Gilles, et al. Binding of prostaglandins to human PPARγ: tool assessment and new natural ligands. European journal of pharmacology, 2001, vol. 417, no 1, p. 77-89).
# The IC50 values (concentration causing a half-maximal inhibition of control specific binding) was determined by non-linear regression analysis of the competition curves generated with mean replicate values using Hill equation curve fitting
# where Y=specific binding, A=left asymptote of the curve, D=right asymptote of the curve, C=compound concentration, C50=IC50, and nH=slope factor. This analysis was performed using software developed at EUROFINS Cerep Company (Hill software) and validated by comparison with data generated by the commercial software SigmaPlot® 4.0 for Windows® (© 1997 by SPSS Inc.).
# Human PPAR-gamma, sequence (P37231 whole entry): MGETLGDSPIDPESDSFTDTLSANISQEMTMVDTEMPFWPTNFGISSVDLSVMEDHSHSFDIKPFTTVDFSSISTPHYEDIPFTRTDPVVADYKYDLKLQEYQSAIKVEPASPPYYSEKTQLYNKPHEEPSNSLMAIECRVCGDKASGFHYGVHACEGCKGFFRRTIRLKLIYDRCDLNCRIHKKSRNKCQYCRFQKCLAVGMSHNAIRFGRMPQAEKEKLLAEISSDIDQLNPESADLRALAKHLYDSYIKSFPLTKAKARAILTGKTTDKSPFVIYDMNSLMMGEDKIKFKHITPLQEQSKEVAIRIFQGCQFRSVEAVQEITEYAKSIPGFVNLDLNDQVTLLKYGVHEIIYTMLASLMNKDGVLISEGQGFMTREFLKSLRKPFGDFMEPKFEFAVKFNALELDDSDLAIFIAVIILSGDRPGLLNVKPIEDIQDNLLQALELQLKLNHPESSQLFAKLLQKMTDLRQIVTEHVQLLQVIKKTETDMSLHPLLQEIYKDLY
row,SMILES,IC50
1,"N#Cc1ccc(Cl)c(C(=O)Nc2ccc(-c3ccncc3)nc2)c1 [Example 7, N-([2,4′-bipyridin]-5-yl)-2-chloro-5-cyanobenzamide]",1 to 50 µM
2,"N#Cc1ccc(F)c(C(=O)Nc2ccc(-c3ccc(F)cc3)nc2)c1 [Example 10, 5-cyano-2-fluoro-N-(6-(4-fluorophenyl)pyridin-3-yl)benzamide]",< 0.2 µM
3,"N#Cc1ccc(Cl)c(C(=O)Nc2ccnc(-c3ccc(F)cc3)c2)c1 [Example 3, 2-chloro-5-cyano-N-(2-(4-fluorophenyl)pyridin-4-yl)benzamide]",0.2 to 1 µM
4,"N#Cc1ccc(Cl)c(C(=O)Nc2ccnc(N3CCOCC3)c2)c1 [Example 16, 2-chloro-5-cyano-N-(2-morpholinopyridin-4-yl)benzamide]",1 to 50 µM
5,"N#Cc1ccc(Cl)c(C(=O)Nc2ccnc(-c3ccccc3)c2)c1 [Example 1, 2-chloro-5-cyano-N-(2-phenylpyridin-4-yl)benzamide]",< 0.2 µM
6,"N#Cc1ccc(F)c(C(=O)Nc2ccc(-c3cccnc3)nc2)c1 [Example 9, N-([2,3′-bipyridin]-5-yl)-5-cyano-2-fluorobenzamide]",< 0.2 µM
7,"N#Cc1ccc(Cl)c(C(=O)Nc2ccc(-c3ccccc3)nc2)c1 [Example 2, 2-chloro-5-cyano-N-(6-phenylpyridin-3-yl)benzamide]",< 0.2 µM
8,"N#Cc1ccc(Cl)c(C(=O)Nc2ccnc(-c3cccnc3)c2)c1 [Example 6, N-([2,3′-bipyridin]-4-yl)-2-chloro-5-cyanobenzamide]",1 to 50 µM
9,"N#Cc1ccc(Cl)c(C(=O)Nc2ccc(-c3cccnc3)nc2)c1 [Example 5, N-([2,3′-bipyridin]-5-yl)-2-chloro-5-cyanobenzamide]",< 0.2 µM
10,"CN1CCN(c2ccc(NC(=O)c3cc(C#N)ccc3Cl)cn2)CC1 [Example 14, 2-chloro-5-cyano-N-(6-(4-methylpiperazin-1-yl)pyridin-3-yl)benzamide]",1 to 50 µM
11,"N#Cc1ccc(Cl)c(C(=O)Nc2ccc(-c3ccc(F)cc3)nc2)c1 [Example 4, 2-chloro-5-cyano-N-(6-(4-fluorophenyl)pyridin-3-yl)benzamide]",< 0.2 µM
12,"N#Cc1ccc(Cl)c(C(=O)Nc2ccc(N3CCOCC3)nc2)c1 [Example 17, 2-chloro-5-cyano-N-(6-morpholinopyridin-3-yl)benzamide]",1 to 50 µM
13,"CN1CCN(c2cc(NC(=O)c3cc(C#N)ccc3Cl)ccn2)CC1 [Example 15, 2-chloro-5-cyano-N-(2-(4-methylpiperazin-1-yl)pyridin-4-yl)benzamide]",≥ 50 µM
14,"N#Cc1ccc(Cl)c(C(=O)Nc2ccc(-c3ccccn3)nc2)c1 [Example 13, N-([2,2′-bipyridin]-5-yl)-2-chloro-5-cyanobenzamide]",< 0.2 µM

# From US11267808B2, “Benzamide derivatives as PPAR-gamma modulators” (MEDIBIOFARMA, S.L., priority 2017, dated 2022)
